Test results: US20250144094A1 (Erasca, Inc., priority 2021, published 2025)

Biological target: Recombinant human ULK1 (1-649) (Homo sapiens (Human), UniProt O75385)
Assay: ULK1 ADP Glo kinase activity assay, new method (ULKtide peptide substrate)
Details: 25° C., 40 minutes, read-out: ULK1 biochemical IC50
How it was run: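 Kinase activity was read as ADP production (ADP-Glo, luminescence 30 min after detection reagent) following a 40-min, 25 °C reaction of Sf9-expressed GST-ULK1 (1-649) with ULKtide substrate and ATP. Compounds ran as 12-point series starting at 10 μM; four-parameter curve fitting versus DMSO wells gave IC50.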

Recombinant human ULK1 (1-649), sequence (O75385 1-649): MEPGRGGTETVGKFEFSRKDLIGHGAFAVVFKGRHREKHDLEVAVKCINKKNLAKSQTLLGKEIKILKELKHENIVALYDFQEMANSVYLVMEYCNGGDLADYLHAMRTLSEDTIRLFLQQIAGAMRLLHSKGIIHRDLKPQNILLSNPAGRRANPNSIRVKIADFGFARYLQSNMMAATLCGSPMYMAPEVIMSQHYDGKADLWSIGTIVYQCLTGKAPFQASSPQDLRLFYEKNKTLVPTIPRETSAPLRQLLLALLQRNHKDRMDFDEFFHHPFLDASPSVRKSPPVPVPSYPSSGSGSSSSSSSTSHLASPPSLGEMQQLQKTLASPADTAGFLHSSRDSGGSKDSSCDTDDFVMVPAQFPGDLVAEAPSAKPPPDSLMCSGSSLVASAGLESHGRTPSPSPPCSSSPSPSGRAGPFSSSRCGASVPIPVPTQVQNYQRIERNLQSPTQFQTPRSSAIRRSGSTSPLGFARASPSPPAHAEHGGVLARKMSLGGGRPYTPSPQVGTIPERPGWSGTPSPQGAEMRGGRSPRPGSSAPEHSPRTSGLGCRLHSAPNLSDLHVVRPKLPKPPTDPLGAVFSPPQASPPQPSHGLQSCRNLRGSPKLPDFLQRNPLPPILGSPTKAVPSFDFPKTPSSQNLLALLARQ

| Compound | IC50 [nM] |
| --- | --- |
| CCc1cc2c(cc1Nc1ncc(C(F)(F)F)c(-c3cc4c(s3)C(=O)N(C3COC3)CCS4(=O)=O)n1)CCN(CC1COC1)C2 [Example 275, 7-(2-((7-ethyl-2-(oxetan-3-ylmethyl)-1,2,3,4-tetrahydroisoquinolin-6-yl)amino)-5-(trifluoromethyl)pyrimidin-4-yl)-4-(oxetan-3-yl)-3,4-dihydrothieno[2,3-f][1,4]thiazepin-5(2H)-one 1,1-dioxide] | ≤ 5 |
| N#CCN1CCc2cc(Nc3ncc(C(F)(F)F)c(-c4cc5c(s4)C(=O)N(C4CC4)CCS5(=O)=O)n3)c(C3CC3)cc2C1 [Example 276, 2-(7-cyclopropyl-6-((4-(4-cyclopropyl-1,1-dioxido-5-oxo-2,3,4,5-tetrahydrothieno[2,3-f][1,4]thiazepin-7-yl)-5-(trifluoromethyl)pyrimidin-2-yl)amino)-3,4-dihydroisoquinolin-2(1H)-yl)acetonitrile] | 10 to 50 |
| CCc1cc2c(cc1Nc1ncc(C(F)(F)F)c(-c3cc4c(s3)C(=O)N(C3CC3)CCS4(=O)=O)n1)CCN(CC1COC1)C2 [Example 277, 4-cyclopropyl-7-(2-((7-ethyl-2-(oxetan-3-ylmethyl)-1,2,3,4-tetrahydroisoquinolin-6-yl)amino)-5-(trifluoromethyl)pyrimidin-4-yl)-3,4-dihydrothieno[2,3-f][1,4]thiazepin-5(2H)-one 1,1-dioxide] | ≤ 5 |
| CC1(CN2CCc3cc(Nc4ncc(C(F)(F)F)c(-c5cc6c(s5)C(=O)N(C5CC5)CCS6(=O)=O)n4)c(C4CC4)cc3C2)COC1 [Example 279, 4-cyclopropyl-7-(2-((7-cyclopropyl-2-((3-methyloxetan-3-yl)methyl)-1,2,3,4-tetrahydroisoquinolin-6-yl)amino)-5-(trifluoromethyl)pyrimidin-4-yl)-3,4-dihydrothieno[2,3-f][1,4]thiazepin-5(2H)-one 1,1-dioxide] | ≤ 5 |
| CCc1cc(N2CCN(CC(N)=O)CC2)ccc1Nc1ncc(C(F)(F)F)c(-c2cc3c(s2)C(=O)N(C2CC2)CCS3(=O)=O)n1 [Example 280, 2-(4-(4-((4-(4-cyclopropyl-1,1-dioxido-5-oxo-2,3,4,5-tetrahydrothieno[2,3-f][1,4]thiazepin-7-yl)-5-(trifluoromethyl)pyrimidin-2-yl)amino)-3-ethylphenyl)piperazin-1-yl)acetamide] | ≤ 5 |
| CCc1cc(C2CCN(CCF)CC2)ccc1Nc1ncc(C(F)(F)F)c(-c2cc3c(s2)C(=O)N(C2CC2)CCS3(=O)=O)n1 [Example 282, 4-cyclopropyl-7-(2-((2-ethyl-4-(1-(2-fluoroethyl)piperidin-4-yl)phenyl)amino)-5-(trifluoromethyl)pyrimidin-4-yl)-3,4-dihydrothieno[2,3-f][1,4]thiazepin-5(2H)-one 1,1-dioxide] | ≤ 5 |
| CN1CCS(=O)(=O)c2cc(-c3nc(Nc4cc5c(cc4Cl)CNCC5)ncc3C3CC3)sc2C1=O [Example 283, 7-(2-((7-chloro-1,2,3,4-tetrahydroisoquinolin-6-yl)amino)-5-cyclopropylpyrimidin-4-yl)-4-methyl-3,4-dihydrothieno[2,3-f][1,4]thiazepin-5(2H)-one 1,1-dioxide] | ≤ 5 |
| NC(=O)CN1CCc2cc(Nc3ncc(C(F)(F)F)c(-c4cc5c(s4)C(=O)N(C4COC4)CCS5(=O)=O)n3)c(C3CC3)cc2C1 [Example 284, 2-(7-cyclopropyl-6-((4-(4-(oxetan-3-yl)-1,1-dioxido-5-oxo-2,3,4,5-tetrahydrothieno[2,3-f][1,4]thiazepin-7-yl)-5-(trifluoromethyl)pyrimidin-2-yl)amino)-3,4-dihydroisoquinolin-2(1H)-yl)acetamide] | ≤ 5 |
| N#CCN1CCc2cc(Nc3ncc(C(F)(F)F)c(-c4cc5c(s4)C(=O)N(C4COC4)CCS5(=O)=O)n3)c(C3CC3)cc2C1 [Example 285, 2-(7-cyclopropyl-6-((4-(4-(oxetan-3-yl)-1,1-dioxido-5-oxo-2,3,4,5-tetrahydrothieno[2,3-f][1,4]thiazepin-7-yl)-5-(trifluoromethyl)pyrimidin-2-yl)amino)-3,4-dihydroisoquinolin-2(1H)-yl)acetonitrile] | 5 to 10 |
| CC1(CN2CCc3cc(Nc4ncc(C(F)(F)F)c(-c5cc6c(s5)C(=O)N(C5COC5)CCS6(=O)=O)n4)c(C4CC4)cc3C2)COC1 [Example 286, 7-(2-((7-cyclopropyl-2-((3-methyloxetan-3-yl)methyl)-1,2,3,4-tetrahydroisoquinolin-6-yl)amino)-5-(trifluoromethyl)pyrimidin-4-yl)-4-(oxetan-3-yl)-3,4-dihydrothieno[2,3-f][1,4]thiazepin-5(2H)-one 1,1-dioxide] | ≤ 5 |
| CC(C)(O)CN1CCc2cc(Nc3ncc(C(F)(F)F)c(-c4cc5c(s4)C(=O)N(C4CC4)CCS5(=O)=O)n3)c(C3CC3)cc2C1 [Example 287, 4-cyclopropyl-7-(2-((7-cyclopropyl-2-(2-hydroxy-2-methylpropyl)-1,2,3,4-tetrahydroisoquinolin-6-yl)amino)-5-(trifluoromethyl)pyrimidin-4-yl)-3,4-dihydrothieno[2,3-f][1,4]thiazepin-5(2H)-one 1,1-dioxide] | ≤ 5 |
| CCc1cc(C2CCN(CC(F)(F)F)CC2)ccc1Nc1ncc(C(F)(F)F)c(-c2cc3c(s2)C(=O)N(C2CC2)CCS3(=O)=O)n1 [Example 288, 4-cyclopropyl-7-(2-((2-ethyl-4-(1-(2,2,2-trifluoroethyl)piperidin-4-yl)phenyl)amino)-5-(trifluoromethyl)pyrimidin-4-yl)-3,4-dihydrothieno[2,3-f][1,4]thiazepin-5(2H)-one 1,1-dioxide] | > 100 |
| O=C1c2sc(-c3nc(Nc4cc5c(cc4C4CC4)CN(C4COC4)CC5)ncc3C(F)(F)F)cc2S(=O)(=O)CCN1C1CC1 [Example 289, 4-cyclopropyl-7-(2-((7-cyclopropyl-2-(oxetan-3-yl)-1,2,3,4-tetrahydroisoquinolin-6-yl)amino)-5-(trifluoromethyl)pyrimidin-4-yl)-3,4-dihydrothieno[2,3-f][1,4]thiazepin-5(2H)-one 1,1-dioxide] | 5 to 10 |
| CC(C)(O)CN1CCc2cc(Nc3ncc(C(F)(F)F)c(-c4cc5c(s4)C(=O)N(C4COC4)CCS5(=O)=O)n3)c(C3CC3)cc2C1 [Example 291, 7-(2-((7-cyclopropyl-2-(2-hydroxy-2-methylpropyl)-1,2,3,4-tetrahydroisoquinolin-6-yl)amino)-5-(trifluoromethyl)pyrimidin-4-yl)-4-(oxetan-3-yl)-3,4-dihydrothieno[2,3-f][1,4]thiazepin-5(2H)-one 1,1-dioxide] | ≤ 5 |
| O=C1c2sc(-c3nc(Nc4cc5c(cc4C4CC4)CN(C4COC4)CC5)ncc3C(F)(F)F)cc2S(=O)(=O)CCN1C1COC1 [Example 292, 7-(2-((7-cyclopropyl-2-(oxetan-3-yl)-1,2,3,4-tetrahydroisoquinolin-6-yl)amino)-5-(trifluoromethyl)pyrimidin-4-yl)-4-(oxetan-3-yl)-3,4-dihydrothieno[2,3-f][1,4]thiazepin-5(2H)-one 1,1-dioxide] | ≤ 5 |
| O=C1c2sc(-c3nc(Nc4cc5c(cc4C4CC4)CN(C4CC4)CC5)ncc3C(F)(F)F)cc2S(=O)(=O)CCN1C1CC1 [Example 293, 4-Cyclopropyl-7-(2-((2,7-dicyclopropyl-1,2,3,4-tetrahydroisoquinolin-6-yl)amino)-5-(trifluoromethyl)pyrimidin-4-yl)-3,4-dihydrothieno[2,3-f][1,4]thiazepin-5(2H)-one 1,1-dioxide] | 5 to 10 |
| CCc1cc(N2CCN(C3CC3)CC2)ccc1Nc1ncc(C(F)(F)F)c(-c2cc3c(s2)C(=O)N(C2CC2)CCS3(=O)=O)n1 [Example 294, 4-Cyclopropyl-7-(2-((4-(4-cyclopropylpiperazin-1-yl)-2-ethylphenyl)amino)-5-(trifluoromethyl)pyrimidin-4-yl)-3,4-dihydrothieno[2,3-f][1,4]thiazepin-5(2H)-one 1,1-dioxide] | ≤ 5 |
| O=S1(=O)CCNS(=O)(=O)c2sc(-c3nc(Nc4cc5c(cc4Cl)CNCC5)ncc3C(F)(F)F)cc21 [Example 295, 7-(2-((7-chloro-1,2,3,4-tetrahydroisoquinolin-6-yl)amino)-5-(trifluoromethyl)pyrimidin-4-yl)-3,4-dihydro-2H-thieno[3,2-f][1,5,2]dithiazepine 1,1,5,5-tetraoxide] | ≤ 5 |
| CCc1cc(C2CCN(CC(F)F)CC2)ccc1Nc1ncc(C(F)(F)F)c(-c2cc3c(s2)C(=O)N(C2COC2)CCS3(=O)=O)n1 [Example 296, 7-(2-((4-(1-(2,2-difluoroethyl)piperidin-4-yl)-2-ethylphenyl)amino)-5-(trifluoromethyl)pyrimidin-4-yl)-4-(oxetan-3-yl)-3,4-dihydrothieno[2,3-f][1,4]thiazepin-5(2H)-one 1,1-dioxide] | 5 to 10 |
| CC1(C)CC(CN2CCc3cc(Nc4ncc(C(F)(F)F)c(-c5cc6c(s5)C(=O)N(C5CC5)CCS6(=O)=O)n4)c(C4CC4)cc3C2)O1 (stereo not shown) [Example 297, 4-Cyclopropyl-7-(2-((7-cyclopropyl-2-((4,4-dimethyloxetan-2-yl)methyl)-1,2,3,4-tetrahydroisoquinolin-6-yl)amino)-5-(trifluoromethyl)pyrimidin-4-yl)-3,4-dihydrothieno[2,3-f][1,4]thiazepin-5(2H)-one 1,1-dioxide] | ≤ 5 |
| CCc1cc(C2CCN(CC(F)(F)F)CC2)ccc1Nc1ncc(C(F)(F)F)c(-c2cc3c(s2)C(=O)N(C2COC2)CCS3(=O)=O)n1 [Example 298, 7-(2-((2-Ethyl-4-(1-(2,2,2-trifluoroethyl)piperidin-4-yl)phenyl)amino)-5-(trifluoromethyl)pyrimidin-4-yl)-4-(oxetan-3-yl)-3,4-dihydrothieno[2,3-f][1,4]thiazepin-5(2H)-one 1,1-dioxide] | 10 to 50 |
| CC(C)(F)CN1CCc2cc(Nc3ncc(C(F)(F)F)c(-c4cc5c(s4)C(=O)N(C4CC4)CCS5(=O)=O)n3)c(C3CC3)cc2C1 [Example 299, 4-cyclopropyl-7-(2-((7-cyclopropyl-2-(2-fluoro-2-methylpropyl)-1,2,3,4-tetrahydroisoquinolin-6-yl)amino)-5-(trifluoromethyl)pyrimidin-4-yl)-3,4-dihydrothieno[2,3-f][1,4]thiazepin-5(2H)-one 1,1-dioxide] | 10 to 50 |
